In brackets after ≈: the same amount, converted by molar mass. Where two headings read alike, the source gives them in different places.
Legend:
[1] = system: Ancylostoma ceylanicum hookworms; settings: cited from earlier work; for % Parasite reduction: A. ceylanicum infections in hamsters; for reduction of A. ceylanicum burdens: hamsters
BaCC [2] = assay: Minimum inhibitory concentration of terpenes against BaCC (broth microdilution); type: cell-based; settings: Bacillus thuringiensis; 24 h at 30° C. in LB; no absorbance increase; read-out: MIC μg/mL (100)
Description: Three terpenes were tested against BaCC including: carvacrol, geraniol and farnesol, by using the broth microdilution method as described in Agaisse and Lereclus, J. Bacteriol. 176, 4734-4741, 1994 and Agaisse and Lereclus, Mol. Microbiol. 13, 97-107, 1994 with some modifications. Briefly, BaCC from a single colony was grown in 5 mL of LB medium supplemented with 10 μg/mL erythromycin+200 μg/mL kanamycin overnight (O.D. (600) of 4.8, 2.3×10^7 CFU/mL). Terpene solutions were prepared at 1 mg/mL in LB. One hundred μL of two-fold serial dilutions of each terpene in LB were prepared in 96-well microtiter plates over the range of 1000 to 3.9 μg/mL in triplicate. LB without terpenes was used as a negative control. BaCC culture was diluted 100 times, and 100 μL of BaCC culture was added to the wells. Absorbance at 600 nm was recorded before and after the incubation to monitor bacterial growth. The MICs were determined after incubation for 24 h at 30° C. without shaking.

BaCC [3] = assay: Time to kill: CFU/mL of BaCC after terpene treatment; type: cell-based, Bacillus thuringiensis
Description: In order to determine which terpene kills BaCC in the shortest amount of time, we incubated 5 mL of BaCC culture with three terpenes at 1 mg/mL at 4° C. for 1, 2, 3 and 5 hours. No terpene control and no bacteria controls were carried out simultaneously. After incubation with terpenes, samples were centrifuged and the pellets were washed with 5 mL of 1M NaCl once and 5 mL of sterile distilled water twice in order to remove the terpenes. The pellets were re-suspended in the original volume and plated on LB agar with kanamycin and erythromycin. Plates were incubated overnight at 30° C.; the next day, the number of colonies on the plates were enumerated and colony forming units (CFU)/mL calculated.
To assess terpene killing at shorter time points, BaCC culture was grown in 3× LB for 48 h as described above and 60 ml of cultures were aliquoted in sterile tubes. Carvacrol and geraniol were added to the final concentration of 1 mg/mL, and the tubes were placed on a rotator at 4° C. for 15 minutes. The negative control was prepared using sterile water instead of terpenes. At the end of the incubation period, the tubes were centrifuged at 2000× g for 10 minutes and pellets washed with 60 ml of 1 M NaCl once and washed with 60 mL of sterile distilled water twice. Pellets were re-suspended in 1.2 mL of sterile distilled water to concentrate the culture 50 times. Concentrated terpene treated and control samples were plated on LB agar plates containing kanamycin and erythromycin and incubated overnight at 30° C. The number of colonies were counted the next day and CFU/mL calculated for each time point.

| Compound | MIC (BaCC [2]) | CFU/ml (1 mg/mL terpene treatment for time indicated) (BaCC [3]; 1 h at 4° C.) | CFU/ml (1 mg/mL terpene treatment for time indicated) (BaCC [3]; 3 h at 4° C.) | CFU/ml (1 mg/mL terpene treatment for time indicated) (BaCC [3]; 5 h at 4° C.) | CFU/ml (1 mg/mL terpene treatment for time indicated) (BaCC [3]; time 0) | % Parasite reduction ([1]; 10 mg/kg) | reduction of A. ceylanicum burdens ([1]; 10-mg/kg dose) | further results |
| --- | --- | --- | --- | --- | --- | --- | --- | --- |
| CCCSc1ccc2nc(NC(=O)OC)[nH]c2c1 [Albendazole, albendazole] | – | – | – | – | – | – | – | % Parasite reduction ([1]; 1.25 mg/kg): 88%; reduction of A. ceylanicum burdens ([1]; 1.25-mg/kg (4.7 μmol/kg) dose): 88%; dose required to clear the same infection ([1]; in vivo): 5 mg/kg |
| CC(C)=CCCC(C)=CCCC(C)=CCO [Farnesol, farnesol] | 500 µg/mL (≈ 2250 µM) | 1.00 × 10^7 CFU/ml | 1.30 × 10^5 CFU/ml | 0 CFU/ml | 2.31 × 10^7 CFU/ml | – | – | – |
| CC(C)=CCC/C(C)=C/CO [Geraniol, geraniol] | 500 µg/mL (≈ 3240 µM) | 0 CFU/ml | 0 CFU/ml | 0 CFU/ml | 2.31 × 10^7 CFU/ml | – | – | CFU/ml (1 mg/mL terpene treatment for time indicated) (BaCC [3]; 15 min at 4° C., culture concentrated 50 times (50X conc.) before plating): 100 CFU/ml |
| c1ccc([C@H]2CN3CCSC3=N2)cc1 [Levamisole, levamisole] | – | – | – | – | – | 60% | 60% | – |
| CN1CCCN=C1/C=C/c1cccs1 [Pyrantel, pyrantel] | – | – | – | – | – | 87% | 87% | – |
| C/C(=N/c1ccc(/N=C/c2ccc(/C=N/c3ccc(/N=C(/C)N(C)C)cc3)cc2)cc1)N(C)C [Tribendimidine, tribendimidine] | – | – | – | – | – | 75% | 75% | – |
